Read-outs that look alike come from different tables or passages of the source. *1 amine or outer side, *2 acyl side, *3 side chain or, on linkers, in order; H or OH if unused. Where a SMILES comes first, the peptide text is derived from it. Bridges are numbered along the chain shown (N, C = ends). Roman numbers before positions name the chains, in order. [ ]: non-standard residue; d: D form. Actinocin(9to1) = Cc1c2oc3c(C)ccc(C(=O)[*:1])c3nc-2c(C(=O)[*:2])c(N)c1=O; NMeV = CN[C@H](C(=O)O)C(C)C; Sar = CNCC(=O)O
Tests used:
Cryptosporidium parvum [1] = test: qRT-PCR assay of the growth of C. parvum in vitro in HCT-8 host cells (primary and secondary screening, EC50); type: cell-based; conditions: Cryptosporidium parvum; for inhibition at 10 µM / inhibition at 3.3 µM: HCT-8; for inhibition at 10 µM: primary screening at 10 uM, read-out: Inhibition (%); for inhibition at 3.3 µM: secondary screening at 3.3 uM, read-out: % Inhibition (3.3 uM); for EC50: growth of C. parvum in vitro, HCT-8 host cells, 44 h infection
HCT-8 cells = test: In vitro cytotoxicity MTS assay on host cells; type: cell-based, human; conditions: 41 h
Experimental: The plates were measured for absorbance at 490 nm in 15 min intervals in a SmartReader 96 microplate reader (Accuris, Edison, NJ, United States). Cytotoxicity of a compound was quantified by calculating the half maximal toxic concentration on host cells (TC50). An in vitro safety interval (SI) was calculated by determining the ratio between TC50 and EC50 values (i.e., SI = TC50/EC50).

Cryptosporidium parvum [2] = test: Effect on different parasite developmental stages in vitro (qRT-PCR); type: cell-based; conditions: cedrelone 1.0 μM, Deox B 7,4 2.0 μM, baicalein 3.3 μM, PRM 150 μM
Experimental: We selected three top hits derived from plants for evaluating their activity against various developmental stages of C. parvum. For evaluating the effect on the parasite invasion (i.e., 0–3 hpi treatment groups), host cell monolayers will be incubated with C. parvum oocysts (10^5 oocysts/well) in 96-well plates together with individual compounds at around EC80 concentrations. For evaluating the effect on various stages of intracellular parasites (i.e., 3–10 hpi, […], 22–44 hpi, and 3–44 hpi treatment groups), host cell monolayers were incubated with C. parvum oocysts (50,000 oocysts/well) for 3 h, followed by the removal of uninvaded parasites by a medium exchange. These time points roughly corresponded to the invasion into host cells (0–3 hpi), the development of first and some second generation of merogony (3–22 hpi) or second generation of merogony and gametogenesis (22–44 hpi). Individual compounds at EC80 final concentrations were added into wells at specified post-infection time points, and plates were incubated for specified durations of post-infection times. Cell lysates were prepared at the end of each treatment for qRT-PCR.
(§1) In all experiments, negative controls were treated with diluent (0.5% DMSO) for the same durations of corresponding drug treatment groups. All experiments include least three biological replicates for each compound in the in vitro drug treatment assay and two technical replicates for each biological replicate in the qRT-PCR assay.

Cryptosporidium parvum [3] = test: Drug withdrawal assay (qRT-PCR at 44 hpi); type: cell-based; conditions: assayed at 44 hpi, cedrelone 1.0 μM, Deox B 7,4 2.0 μM, baicalein 3.3 μM, PRM 150 μM
Experimental: For drug withdrawal assay, HCT-8 cells were cultured and inoculated with C. parvum oocysts (50,000 oocysts/well) for 3 h. After a medium exchange, individual compounds at EC80 final concentrations were added into wells. Compounds were removed at 22 hpi time point by a medium exchange, and infected cells were allowed to grow up to 44 hpi (3–22 hpi treatment groups). A full course of treatment for each compound was included as control (3–44 hpi treatment groups). Cell lysates were prepared at 44 hpi time point for qRT-PCR.
as §1

in vitro = conditions: for cytotoxicity at 41 h, 10 µM: human
[4] = mouse, ip; ref MicroSource NatProd Collection note; cited from earlier work
[5] = tested on: cryptosporidial infection; set-up: method as in Lemeteil et al., 1993; conditions: ref Lemeteil et al., 1993; cited from earlier work
[6] = primary screening at 10 uM, treated vs control

Row | SMILES | inhibition at 10 µM (Cryptosporidium parvum [1]) [%] | inhibition at 3.3 µM (Cryptosporidium parvum [1]) [%] | EC50 (Cryptosporidium parvum [1]) [nM] | TC50 (HCT-8 cells; HCT-8 cells, MTS) [nM] | Hs18S ΔCT (HCT-8 host cells (Hs18S); human, 41 h, 10 μM) | cytotoxicity at 41 h, 10 µM (in vitro) [%] | Hs18S ΔCT (HCT-8 host cells (Hs18S); [6]) | cytotoxicity at 10 µM (in vitro) [%] | also measured
1 | COc1ccc2c(c1)OC[C@H](Cc1ccc(OC)c(O)c1)C2=O [Deoxysappanone B 7,4′-dimethyl ether] | 91.3 | 52 | 734 | 64900 | 0.62 | 35.1 | – | – | inhibition at 2 µM (Cryptosporidium parvum [2]; treatment 0-3 hpi (excystation and invasion)): -5.5 ± 7.2%; inhibition at 2 µM (Cryptosporidium parvum [2]; treatment 3-10 hpi): 9.1 ± 10.4%; inhibition at 2 µM (Cryptosporidium parvum [2]; treatment 3-22 hpi, assayed at end of treatment): 18%; inhibition at 2 µM (Cryptosporidium parvum [2]; treatment 3-44 hpi (full course)): 67.2%; inhibition at 2 µM (Cryptosporidium parvum [2]; treatment 22-44 hpi): 22.9 ± 6.8%; inhibition at 2 µM (Cryptosporidium parvum [3]; full course 3-44 hpi, read-out: 3-44 hpi Inhibition): 73.8%; inhibition at 2 µM (Cryptosporidium parvum [3]; treated 3-22 hpi, compound removed, read-out: 3-22 hpi Inhibition): 61.9%
2 | Cc1coc2c1C(=O)C(=O)c1c-2ccc2c1CCCC2(C)C [Tanshinone IIA] | 82.7 | 63 | 964 | >100000 | – | – | 0.08 | 5.6 | –
3 | COC1=C[C@@H]2[C@@H]3Cc4ccc(OC)c(O)c4[C@]2(CCN3C)CC1=O [SINOMENINE] | -83.5 | – | – | – | – | – | -0.78 | -71.8 | LD50 [4]: 285 mg/kg
4 | CC1(C)C(=O)C=C[C@]2(C)[C@H]3CC[C@@]4(C)[C@H](c5ccoc5)OC(=O)[C@H]5O[C@]54[C@]3(C)C(=O)C[C@@H]12 [Deacetoxy-7-oxogedunin] | 88.7 | 77 | 1940 | 12800 | – | – | 0.39 | 23.6 | –
5 | COc1ccc(C(=O)c2ccc(O)cc2)c(O)c1O [2,3,4′-Trihydroxy-4-methoxybenzophenone] | 83.2 | 59 | 3690 | >100000 | 0.10 | 6.4 | – | – | –
6 | CC1(C)C(=O)C=C[C@]2(C)[C@H]3CC[C@@]4(C)[C@H](c5ccoc5)OC(=O)[C@H]5O[C@]54[C@]3(C)[C@H](O)C[C@@H]12 [Deacetylgedunin] | 91.1 | 56 | 1770 | 30900 | – | – | 0.23 | 14.8 | –
7 | COc1ccc2c(c1)OCC(Cc1ccc(OC)c(OC(C)=O)c1)C2=O (centres unmarked) [Deoxysappanone B 7,3′-dimethyl ether acetate] | 87.4 | 71 | 1190 | >100000 | 0.24 | 15.5 | – | – | –
8 | CC[C@H](C)C(=O)O[C@H]1C[C@@H](C)C=C2C=C[C@H](C)[C@H](CC[C@@H]3C[C@@H](O)CC(=O)O3)[C@H]21 [Lovastatin, reference compound] | 85.8 | 58 | 2410 | >100000 | 0.60 | 34.1 | – | – | –
9 | COc1cccc2c1C(=O)c1c(O)c3c(c(O)c1C2=O)C[C@@](O)(C(C)=O)C[C@@H]3O[C@H]1C[C@H](N)[C@H](O)[C@H](C)O1 [Daunorubicin, reference compound] | 76.8 | 71 | 1490 | – | 0.99 | 49.5 | – | – | TC50 (HCT-8 cells; human): 42600 nM; efficacy on cryptosporidial infection in rats [5]: ineffective
10 | CC(C)[C@@H]1NC(=O)[C@H](C)OC(=O)[C@@H](C(C)C)NC(=O)[C@@H](C(C)C)OC(=O)[C@H](C(C)C)NC(=O)[C@H](C)OC(=O)[C@@H](C(C)C)NC(=O)[C@@H](C(C)C)OC(=O)[C@H](C(C)C)NC(=O)[C@H](C)OC(=O)[C@@H](C(C)C)NC(=O)[C@@H](C(C)C)OC1=O [Valinomycin, reference compound] | 92.3 | 87 | 122 | >50000 | – | – | -0.13 | -9.2 | –
11 | CO[C@@]12[C@H](COC(N)=O)C3=C(C(=O)C(C)=C(N)C3=O)N1C[C@@H]1N[C@@H]12 [Mitomycin, reference compound] | 93.7 | 78 | 133 | 13100 | – | – | – | 60.5 | Hs18S ΔCT (HCT-8 host cells (Hs18S)): 1.34
12 | CC(C)=CCCC1(C)C=Cc2c(O)c3c(c(CC=C(C)C)c2O1)OC12C(=CC4CC1C(C)(C)OC2(C/C=C(/C)C(=O)O)C4O)C3=O (centres unmarked) [Dihydrogambogic acid] | 97.7 | 57 | 1670 | – | – | – | -0.60 | -52 | TC50 (HCT-8 cells; human): 6310 nM
13 | Cc1c2oc3c(C)ccc(C(=O)N[C@@H]4C(=O)N[C@H](C(C)C)C(=O)N5CCC[C@H]5C(=O)N(C)CC(=O)N(C)[C@@H](C(C)C)C(=O)O[C@@H]4C)c3nc-2c(C(=O)N[C@@H]2C(=O)N[C@H](C(C)C)C(=O)N3CCC[C@H]3C(=O)N(C)CC(=O)N(C)[C@@H](C(C)C)C(=O)O[C@@H]2C)c(N)c1=O [Dactinomycin, reference compound] (I: T[dV]P[Sar][NMeV] / II: T[dV]P[Sar][NMeV]; ester I:1-I:C, II:1-II:C; linker I:N-II:N via Actinocin(9to1)) | 94.3 | 97 | 314 | 2820 | – | – | 1.50 | 64.6 | –
14 | CC1(C)C(=O)C=C[C@@]2(C)C1=C(O)C(=O)[C@]1(C)[C@@H]2CC[C@@]2(C)[C@H](c3ccoc3)C[C@H]3O[C@]321 [Cedrelone] | 99.5 | – | 267 | – | 1.38 | 61.7 | – | – | TC50 (HCT-8 cells; human): 3590 nM
15 | Cc1cccc2c3c(ccc12)C1=C(C(=O)C3=O)[C@@H](C)CO1 [Dihydrotanshinone I] | 87 | 75 | 3080 | – | 0.00 | 0.2 | – | – | TC50 (HCT-8 cells; human): 25000 nM
